Test results taken from patent publication US20040235920A1, “Novel use of substituted aminomethyl chromans for the treatment of movement disorders and of adverse effects induced by drugs administered to treat extrapyramidal movement disorders” (priority 2001, published 2004).

Experiments:
[1] = tested on: cataleptic rat; assay: Reversal of catalepsy in rats (oral ED50); format: in vivo; details: rats; for ED50: Rattus norvegicus, read-out: oral ED50 value (calculated dose to reverse catalepsy by 50%); for oral ED50 value (calculated dose to reverse catalepsy by 50%) / ED50: oral
Method: Extrapyramidal motor side effects in e.g. rodents are measured by the ability of a drug to induce catalepsy. Catalepsy is defined as a state where an animal continues to remain in an unnormal (nonphysiological ‘uncomfortable’) posture for a long time (e.g.: M. E. Stanley and S. D. Glick, Neuropharmacology, 1996; 15: 393-394; C. J. E. Niemegeers and P. Janssen, Life Sci., 1979, […]). For example, if a hindpaw of a rat is placed on an elevated level, e.g. a platform elevated 3 cm above ground level, a normal rat immediately withdraws the hindpaw from the platform to the ground level. A cataleptic rat remains in this unnatural posture even for minutes.

[2] = tested on: patients with advanced idiopathic Parkinson's disease complicated by “peak-dose” dyskinesia; assay: Double-blind add-on study in advanced idiopathic Parkinson's disease with peak-dose dyskinesia (diary card); format: in vivo, human; details: 2.5 to 10 mg b.i.d., typical study
Excerpt: A typical study to investigate the efficacy of the compounds according to the invention for adverse effects in Parkinson's disease is described in the following. 40 patients of either sex with advanced idiopathic Parkinson's disease complicated by “peak-dose” dyskinesia participate in a double-blind study. The main inclusion criteria are Hoehn & Yahr stage≧2.5 (lit.: Hoehn H. M. et al, Neurology 1967; 17: 427-442), aged 40-75 years, symptom duration of at least 5 years, and a l-dopa treatment duration of at least 3 years. (−)-(R)-2-{4-[[3,4-dihydro-2H-benzopyran-2-yl)-methyl]amino]butyl}-1,2-benzoisothiazol-3-(2H)-on-1,1-dioxide monohydrochloride or placebo is administered as “add on” to the conventional Parkinson treatment, which is maintained unchanged during the whole study. The dose of blinded medication is titrated over a period of 3 weeks in a range from 2.5 to 10 mg b.i.d. Then the medication is kept constant for 3 weeks. Before the start of titration and at the end of the treatment period the patients fill a diary card in 30 min. inervalls for 48 hours. The diary card differentiates 5 different states: (1) “on” without dyskinesia, (2) “on” with troublesome dyskinesia, (3) “on” with non-troublesome dyskinesia, (4) “off” time, and (5) time asleep (Hauser RA et al., Clin. Neuropharmacol., 2000, 23, 75-81). The primary outcome variable of the protocol is the change in “on” time with troublesome dyskinesia. […] The other parameters are not changed.

[3] = tested on: MSA patients; assay: Add-on study in MSA patients (UPDRS); format: in vivo, human; details: 1 to 20 mg t.i.d., typical study
Method: The study design is similar to that described above for Parkinson's disease. (−)-(R)-2-{4-[[3,4-dihydro-2H-benzopyran-2-yl)-methyl]amino]butyl}-1,2-benzoisothiazol-3-(2H)-on-1,1-dioxide monohydrochloride or placebo is titrated as “add on” to the conventional treatment (dose range 1 to 20 mg t.i.d.). After a double-bllind dose-finding phase of 3 weeks during which the individual dose is identified for each patient on the basis of tolerability and efficacy, the dose is maintained unchanged for 3 additional weeks. Before the start of titration and at the end of the treatment period a complete UPDRS assessment is performed in each patient (primary outcome measure).

[4] = tested on: patients with cervical dystonia (spasmodic torticollis); assay: Double-blind placebo-controlled study in cervical dystonia (TWSTRS); format: in vivo, human; details: 2.5 mg to 20 mg b.i.d.
[5] = tested on: schizophrenic inpatients on long-term antipsychotic treatment; assay: Cross-over add-on study in tardive dyskinesia (AIMS); format: in vivo, human; details: up to 20 mg t.i.d., vs placebo period, typical study
Excerpt: Tardive dyskinesia is a common adverse effect of long-term treatment with neuroleptics. A typical study to investigate the efficacy of the compounds according to the invention in tardive dyskinesia is described in the following. 32 schizophrenic (DSM-III-R) inpatients aged 25-60 years on long-term stable antipsychotic treatment (duration of at least 5 years) entered the study. (−)-(R)-2-{4-[[3,4-dihydro-2H-benzopyran-2-yl)-methyl]amino]butyl}-1,2-benzoisothiazol-3-(2H)-on-1,1-dioxide monohydrochloride or placebo is administered as “add on” to the antipsychotic treatment, which is kept constant during the whole study. The dose of blinded medication is titrated over a period of 3 weeks in a range from I to 20 mg t.i.d. Then the medication is maintained under double-blind conditions for 2 weeks. After a 2-week wash-out period, the test drugs are crossed over. Assessments of tardive dyskinesia by means of the Abnormal Involuntary Movement Scale (AIMS, see above) and of Parkinsonian extrapyramidal side effects (UPDRS, see above) are made pretreatment and posttreatment.

[6] = tested on: advanced Parkinson patients; details: cited from earlier work

Cl.O=C1c2ccccc2S(=O)(=O)N1CCCCNC[C@H]1CCc2ccccc2O1 [(−)-(R)-2-{4-[[3,4-dihydro-2H-benzopyran-2-yl)-methyl]amino]butyl}-1,2-benzoisothiazol-3-(2H)-on-1,1-dioxide monohydrochloride]
oral ED50 value (calculated dose to reverse catalepsy by 50%) [1]: 0,6 mg/kg
potency in reversing catalepsy compared to other 5-HT1A agonists ([1]; oral ED50 vs ipsapirone, buspirone, gepirone, tandosirone): 30-100 times
other diary parameters [2]: not changed
“on” time with troublesome dyskinesia [2]: significant reduction
“on” time without dyskinesia [2]: significantly increase
UPDRS (Parkinson symptoms) [3]: significant clinical improvement of Parkinson symptoms
TWSTRS scores [4]: significant improvement
AIMS scores [5]: significantly lower than during placebo period

O=C1CC2(CCCC2)CC(=O)N1CCCCN1CCN(c2ncccn2)CC1 [buspirone]
ED50 [1]: 30 mg/kg
anti-dyskinetic properties [6]: moderate anti-dyskinetic properties

CC1(C)CC(=O)N(CCCCN2CCN(c3ncccn3)CC2)C(=O)C1 [gepirone]
ED50 [1]: 16 mg/kg

O=C1c2ccccc2S(=O)(=O)N1CCCCN1CCN(c2ncccn2)CC1 [ipsapirone]
ED50 [1]: 23 mg/kg

O=C1[C@@H]2[C@H]3CC[C@H](C3)[C@@H]2C(=O)N1CCCCN1CCN(c2ncccn2)CC1 [tandosirone]
oral ED50 value (calculated dose to reverse catalepsy by 50%) [1]: 60 mg/kg
